Data as given in patent US9040715B2 (priority 2008, dated 2015).
≈ marks a conversion by molar mass, not a printed value.

Legend:
Candida albicans (CAF-2) = assay: Anti-fungal/anti-yeast activity: MIC50 (broth microdilution) and MFC; type: cell-based
Method: (§1) Fluconazole, an ergosterol inhibitor, and the beta-1,3-glucan inhibitor micafungin served as controls (See Tables 1-8).
(§2) The minimum inhibitory concentrations resulting in 50% growth inhibition (MIC50) of […] Candida species (C. albicans, C. tropicalis and C. glabrata, C. lusitaniae, C. parapsilosis, and C. apicola) as well as Aspergillus fumigatus to a set of novel synthetic compounds was determined in accordance with the guidelines in CLSI document M27-A2 (Clinical and Laboratory Standards Institute; Wayne, Pa.). The total volume of cells and drug was 100 μL per microtiter well, and each drug was diluted in RPMI to achieve final concentrations of 0.2-100 μg/ml. Uninoculated cultures were used as a reference standard. Stock inoculum suspensions were prepared from 24 hour cultures on YPD (yeast extract/peptone/dextrose) media at 30° C. For MIC determinations, an inoculum of 1.0×10^3 cells of Candidia and 2.0×10^3 cells of Aspergillus per well were used, and cells in diluted drugs were prepared in RPMI-1640 medium. MICs were determined both visually and spectrophotometrically at 24 hours and 48 h at 550 nm using a micro plate reader. The MIC50 endpoint was measured as the lowest drug concentration resulting in a reduction of growth of 50% or more compared with growth of the control.
(§3) The minimum fungicidal concentrations (MFCs) were determined for each drug-isolate-medium combination as follows. After 48 hours of incubation, 100 μL of each drug-isolate-medium combination (2 plates) was subcultured onto YPD plates (100 μL of solution was spread over the YPD plate). […] The plates were then incubated at 30° C. for 48 hours.
(§4) The in vitro fungicidal activities (MFCs) were determined for each drug-isolate-medium combination as follows. After 48 hours of incubation, 10 μL each drug-isolate-medium combination was spotted onto YPD plates (10 μL of each well is spotted sequentially with positive and negative control wells). […] The plates were then incubated at 30° C. for 48 hours.

Candida apicola = assay: as above; type: cell-based
Method: as §1, §2, §3, §4

Candida lusitaniae = assay: as above; type: cell-based
Method: as §1, §2, §3, §4

Candidia parapsilosis = assay: as above; type: cell-based
Method: as §1, §2, §3, §4

Candida tropicalis = assay: as above; type: cell-based
Method: as §1, §2, §3, §4

Candida glabrata = assay: as above; type: cell-based
Method: as §1, §2, §3, §4

Huh7 cells = assay: Neutral red uptake assay (cytotoxicity); type: cell-based, human
Source text: The neutral red uptake assay is a cytotoxicity test that is based on the ability of viable cells to incorporate and bind the supra-vital dye neutral red in the lysosomes. This weakly cationic dye penetrates cell membranes by non-ionic passive diffusion and concentrates in the lysosomes, where it binds by electrostatic hydrophobic bonds to anionic and phosphate groups of the lysosomal matrix. The dye is then extracted from the viable cells using an acidified ethanol solution, and the absorbance of the solubilized dye is read. When the cell dies or the pH gradient is reduced, the dye is not retained and consequently, the amount of retained dye is proportional to the number of viable cells. Most primary cells and cell lines can be used for this method. The HepG2 and Huh7, two human hepatoma cell lines, were used for this study. The cells were seeded in 96-well tissue culture plates and treated for 48 hours with the compounds. The plates were then incubated for 2 hours with a medium containing neutral red. The cells were subsequently washed, the dye was extracted in each well, and the absorbance was read using a spectrophotometer (FIG. 3 and Table 11).

Huh7 or HepG2 cell line = assay: MTT assay (cytotoxicity); type: cell-based, human; conditions: 24 hours and 48 hours
Method: The MTT assay is a colorimetric assay that measures the reduction of yellow 3-(4,5-dimethylhiazol-2-yl)-2,5-diphenyl tetrazolium bromide (MTT) by mitochondrial succinate dehydrogenase. The MTT enters the cells and passes into the mitochondria where it is reduced to an insoluble, dark purple, formazan product. The cells are then solubilized with an organic solvent (e.g., isopropanol) and the released, solubilized formazan reagent is measured spectrophotometrically. Since reduction of MTT can only occur in metabolically active cells, the level of activity is a measure of the viability of the cells.
Cells of the Huh7 or HepG2 cell line were seeded in a 96 well plate. The plate was incubated overnight at 37° C. in a humidified incubator, 5% CO2. The test compounds were added to the plate. Different concentrations of drug were tested in triplicate along with a negative control. The final volume was adjusted to 100 μl per well. The plate was incubated overnight at 37° C. in a humidified incubator, 5% CO2. After 24 hours and 48 hours, MTT reagent (5 mg/ml, 10 μl/100 μl per well of the 96 well plate) was added and incubated at 37° C. for 3 hours. After 3 hours, 100 μl of the DMSO solution was added to each well and the plate was rocked at room temperature for 1 hour. The plate was then read on a plate reader at […].

[1] = system: Saccharomyces cerevisiae (YPH501); assay: Anti-fungal/anti-yeast activity: MIC50 (broth microdilution) and MFC; type: cell-based
C. albicans Mutants = assay: MIC50 in C. albicans mutant strains; type: cell-based; conditions: Candida albicans
Method: as §2
The MIC50 of Compounds I-1, I-2, and I-5 in several mutant strains of Candida albicans, including fluconazole resistant clinical strains, was determined according to the methods described in Example 1 (see Table 9). The activity of Compound I-1 against fluconazole resistant strains was further explored (see Table 10). In Table 10, Strain #1 is a fluconazole sensitive Candida albicans strain; Strain #17 is a fluconazole resistant Candida albicans strain; C. albicans CS#01 is a first clinical strain; C. albicans CS#02 is a second clinical strain.

[2] = Saccharomyces cerevisiae (YPH501)

SMILES: O=C(Cn1sc2ccccc2c1=O)NNC(=O)c1cccc(Cl)c1 [Compound I-5]
- Activity (fungicidal/fungistatic) (Candida albicans (CAF-2)): fungicidal (An MFC/MIC ratio of less than four indicates that the compound is fungicidal)
- MFC (Candida albicans (CAF-2)): 12.5 µg/mL
- Ratio MFC/MIC (Candida albicans (CAF-2)): 2
- MIC (Candida albicans (CAF-2); read-out: MIC-50): 6.4 µg/mL
- Activity (fungicidal/fungistatic) (Candida apicola; Candida apicola): fungicidal (An MFC/MIC ratio of less than four indicates that the compound is fungicidal)
- MIC-50 (Candida apicola; Candida apicola): 6.4 µg/mL
- Ratio MFC/MIC (Candida apicola; Candida apicola): 2
- MFC (Candida apicola; Starmerella apicola): 12.5 µg/mL
- Activity (fungicidal/fungistatic) (Candida lusitaniae; Candida lusitaniae): fungicidal (An MFC/MIC ratio of less than four indicates that the compound is fungicidal)
- Ratio MFC/MIC (Candida lusitaniae; Candida lusitaniae): 2
- MFC (Candida lusitaniae; Clavispora lusitaniae): 6.4 µg/mL
- MIC (Candida lusitaniae; Clavispora lusitaniae, read-out: MIC-50): 3.2 µg/mL
- MFC (Candidia parapsilosis): 12.5 µg/mL
- Activity (fungicidal/fungistatic) (Candidia parapsilosis; Candidia parapsilosis): fungicidal (An MFC/MIC ratio of less than four indicates that the compound is fungicidal)
- Ratio MFC/MIC (Candidia parapsilosis; Candidia parapsilosis): 2
- MIC (Candidia parapsilosis; read-out: MIC-50): 6.4 µg/mL
- Activity (fungicidal/fungistatic) (Candida tropicalis): fungicidal (An MFC/MIC ratio of less than four indicates that the compound is fungicidal)
- MFC (Candida tropicalis): 12.5 µg/mL
- Ratio MFC/MIC (Candida tropicalis): 2
- MIC (Candida tropicalis; read-out: MIC-50): 6.4 µg/mL
- Activity (fungicidal/fungistatic) (Candida glabrata; Candida glabrata): fungicidal (An MFC/MIC ratio of less than four indicates that the compound is fungicidal)
- Ratio MFC/MIC (Candida glabrata; Candida glabrata): 1
- MFC (Candida glabrata; Nakaseomyces glabratus): 6.4 µg/mL
- MIC (Candida glabrata; Nakaseomyces glabratus, read-out: MIC-50): 6.4 µg/mL
- Percentage Viability (Huh7 cells; 3.3 μg/mL (approx 1X MIC)): >100%
- Percentage Viability (Huh7 cells; 10 μg/mL (approx 3X MIC)): >100%
- Percentage Viability (Huh7 cells; 33 μg/mL (approx 10X MIC)): >100%
- Percentage Viability (Huh7 cells; 100 μg/mL (approx 30X MIC)): 92%
- Toxicity to mammalian cell lines (MTT assay) (Huh7 or HepG2 cell line): minimally toxic
- MFC ([1]; Saccharomyces cerevisiae): 3 µg/mL (≈ 8.29 µM)
- Activity (fungicidal/fungistatic) [1, 2]: fungicidal (An MFC/MIC ratio of less than four indicates that the compound is fungicidal)
- Ratio MFC/MIC [1, 2]: 1
- MIC ([1]; Saccharomyces cerevisiae, read-out: MIC-50): 3 µg/mL (≈ 8.29 µM)
- MIC50 (C. albicans Mutants; C. albicans strain CAF-2): 6 µg/mL (≈ 16.6 µM)
- MIC50 (C. albicans Mutants; C. albicans strain CHK11): 6 µg/mL (≈ 16.6 µM)
- MIC50 (C. albicans Mutants; C. albicans strain CHK21): 6 µg/mL (≈ 16.6 µM)
- MIC50 (C. albicans Mutants; C. albicans strain CHK23): 6 µg/mL (≈ 16.6 µM)
- MIC50 (C. albicans Mutants; C. albicans strain GOA31): 6 µg/mL (≈ 16.6 µM)
- MIC50 (C. albicans Mutants; C. albicans strain GOA32): 6 µg/mL (≈ 16.6 µM)
